Assays:
[1] = biological target: T1, Recombinant human VAP-1 SSAO (Homo sapiens, UniProt Q16853); test: VAP-1 SSAO activity, coupled colourimetric assay (benzylamine substrate); type: biochemical; conditions: for IC50: CHO cell lysate with recombinant human VAP-1 SSAO, 1 mM benzylamine, 1 h at 37° C., read-out: VAP-1 SSAO inhibitory activity IC50; for Selectivity for VAP-1 SSAO over MAO: ratio of total rat MAO IC50 to human VAP-1 SSAO IC50
T1 construct: expressed in transfected cells; host or cells: CHO cells (clarified NP40 lysate used directly)
T1 sequence (Q16853 1-763): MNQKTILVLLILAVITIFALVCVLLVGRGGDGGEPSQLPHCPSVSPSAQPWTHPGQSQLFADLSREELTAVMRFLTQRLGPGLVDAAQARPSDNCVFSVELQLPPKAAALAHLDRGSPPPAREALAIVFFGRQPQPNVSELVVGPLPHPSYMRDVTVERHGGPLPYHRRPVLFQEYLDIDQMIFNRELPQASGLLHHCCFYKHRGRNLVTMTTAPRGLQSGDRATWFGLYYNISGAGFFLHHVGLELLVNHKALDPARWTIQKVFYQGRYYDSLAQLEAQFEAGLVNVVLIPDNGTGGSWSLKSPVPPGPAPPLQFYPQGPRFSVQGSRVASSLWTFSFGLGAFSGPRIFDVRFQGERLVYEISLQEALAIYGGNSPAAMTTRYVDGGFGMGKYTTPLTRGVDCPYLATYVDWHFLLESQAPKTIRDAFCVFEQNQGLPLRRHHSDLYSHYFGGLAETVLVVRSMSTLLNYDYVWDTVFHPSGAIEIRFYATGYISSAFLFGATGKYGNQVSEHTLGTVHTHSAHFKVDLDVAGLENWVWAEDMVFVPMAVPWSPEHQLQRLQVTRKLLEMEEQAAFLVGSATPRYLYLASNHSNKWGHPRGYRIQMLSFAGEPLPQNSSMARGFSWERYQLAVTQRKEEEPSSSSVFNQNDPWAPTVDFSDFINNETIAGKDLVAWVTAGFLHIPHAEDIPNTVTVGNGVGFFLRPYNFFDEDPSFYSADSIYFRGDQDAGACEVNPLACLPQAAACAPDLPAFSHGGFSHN
Experimental: VAP-1 SSAO activity was measured using the coupled colourimetric method essentially as described for monoamine oxidase and related enzymes. Recombinant human VAP-1 SSAO expressed in Chinese Hamster Ovary (CHO) cells was used as a source of VAP-1 SSAO for activity measurements. Native CHO cells have negligible SSAO activity. These cells and their culture have previously been described (Smith D J et al., 1998).
A cell lysate was prepared by suspending approximately 3.6×10^8 cells in 25 ml lysis buffer (150 mM NaCl, 10 mM Tris-Base pH 7.2, 1.5 mM MgCl2, 1% NP40) and incubating at 4° C. overnight on a rotating table. The lysate was clarified by centrifugation at 18000 g for 5 min at room temperature and the supematant used directly in the assay.
The VAP-1 SSAO assay was performed in 96 well microtitre plates as follows. To each well was added a predetermined amount of inhibitor if required. The amount of inhibitor varied in each assay but was generally at a final concentration of between 1 nM and 50 μM. Controls lacked inhibitor. The inhibitor was in a total volume of […] in water. The following reagents were then added. 0.2M potassium phosphate buffer pH 7.6 to a total reaction volume of 200 μl, 45 μl of freshly made chromogenic solution containing 1 mM 2,4-dichlorophenol, 500 μM 4-aminoantipyrine and 4 U/ml horseradish peroxidase and an amount of CHO cell lysate containing VAP-1 SSAO that caused a change of 0.6 A490 per h. This was within the linear response range of the assay.
The plates were incubated for 30 min at 37° C. and the background absorbance measured at 490 nm using a Wallac Victor II multilabel counter. To initiate the enzyme reaction 20 μl 10 mM benzylamine (final concentration=1 mM) was added and the plate incubated for 1 h at 37° C.
The increase in absorbance, reflecting VAP-1 SSAO activity, was measured at 490 nm. Inhibition was presented as percent inhibition compared to control after correcting for background absorbance and IC50. values calculated using GraphPad Prism.

[2] = tested on: T2, Total rat MAO (rat liver mitochondrial preparate); test: Total rat MAO activity, colourimetric assay (tyramine substrate); type: biochemical; conditions: rat liver MAO preparation, 0.5 mM tyramine, 1 h at 37° C.; read-out: Total MAO inhibitory activity IC50
T2 construct: Rat MAO was prepared from rat liver; Mitochondrial preparate was aliquoted and stored at −70° C
Experimental: Rat MAO was prepared from rat liver by rinsing a 1 g liver sample several times in 14 ml KCl-EDTA-solution to remove all blood. Then 1 g liver sample was homogenised in 4 ml ice-cold potassium phosphate buffer (0.1 M, pH 7.4) with an Ultra-Turrax homogeniser (setting 11 000 rpm, 4×10 s). After centrifugation at 500 g for 10 min at 4° C. the supematant was carefully withdrawn and was centrifuged at 12 300 g for 15 min at 4° C. The supernatant was discharged and sedimented mitochondria were resuspended in 4 ml fresh phosphate buffer and centrifuged as previously. The mitochondria were suspended in 4 ml phosphate buffer and homogenized with an Ultra-Turrax homogeniser (setting 11 000 rpm, 2×10 s). Mitochondrial preparate was aliquoted and stored at −70° C. […] To each well was added a predetermined amount of inhibitor if required. The amount of inhibitor varied in each assay but was generally at a final concentration of between 10 nM and […]. Controls lacked inhibitor. […] The plates were incubated for 30 min at 37° C. and the background absorbance measured at 490 nm using a Wallac Victor II multilabel counter. To initiate the enzyme reaction 20 μl of 5 mM tyramine (final concentration 0.5 mM) was added and the plate incubated for 1 h at 37° C. The increase in absorbance, reflecting MAO activity, was measured at 490nm. Inhibition was presented as percent inhibition compared to control after correcting for background absorbance and IC50 values calculated using GraphPad Prism. Clorgyline and pargyline (inhibitors of MAO-A and -B respectively) at 0.5 μM were added to some wells as positive controls for MAO inhibition.

Structure (SMILES) | IC50 [1] | Selectivity for VAP-1 SSAO over MAO [1] | IC50 [2]
COC(COc1ccc2ccccc2c1)CN(C)N.O=C(O)/C=C/C(=O)O (stereo not drawn) [Compound 13] | 640 nM | 5 | 3300 nM
COc1ccc(OCC(O)CN(C)N)cc1.O=C(O)/C=C\C(=O)O (stereo not drawn) [Compound 16] | 350 nM | 21 | 7400 nM
COc1cccc(OCC(O)CN(C)N)c1.O=C(O)/C=C/C(=O)O (stereo not drawn) [Compound 12] | 330 nM | 112 | 37000 nM
CN(N)CC(O)CSc1ccccc1.O=C(O)/C=C/C(=O)O (stereo not drawn) [Compound 11] | 270 nM | 41 | 11000 nM
CN(N)CC(O)CN(C)c1ccccc1.O=C(O)/C=C/C(=O)O (stereo not drawn) [Compound 19] | 200 nM | 45 | 8800 nM
COc1ccc(SCC(O)CN(C)N)cc1OC.O=C(O)/C=C/C(=O)O (stereo not drawn) [Compound 9] | 210 nM | 195 | 41000 nM
CN(N)CC(O)COc1ccc(Cl)cc1.O=C(O)/C=C/C(=O)O (stereo not drawn) [Compound 17] | 430 nM | 14 | 6100 nM
Cc1ccc(OCC(O)CN(C)N)cc1.O=C(O)/C=C/C(=O)O (stereo not drawn) [Compound 4] | 430 nM | 23 | 10000 nM
COC(CN(C)N)CN(C)c1ccccc1.O=C(O)/C=C/C(=O)O (stereo not drawn) [Compound 20] | 340 nM | 28 | 9600 nM
CN(N)CC(O)COc1ccc2ccccc2c1.O=C(O)/C=C/C(=O)O (stereo not drawn) [Compound 10] | 550 nM | 11 | 6000 nM
CN(N)CC(O)COc1ccccc1.O=C(O)/C=C\C(=O)O (stereo not drawn) [Compound 1] | 370 nM | 35 | 13000 nM
COC(COc1ccc(C)cc1)CN(C)N.O=C(O)/C=C/C(=O)O (stereo not drawn) [Compound 7] | 440 nM | 14 | 6000 nM
COC(CSc1ccccc1)CN(C)N.O=C(O)/C=C/C(=O)O (stereo not drawn) [Compound 14] | 370 nM | 9 | 3400 nM
COC(COc1ccc(Cl)cc1)CN(C)N.O=C(O)/C=C/C(=O)O (stereo not drawn) [Compound 3] | 260 nM | 13 | 3300 nM
CN(N)CC(O)COc1cccc2ccccc12.O=C(O)/C=C\C(=O)O (stereo not drawn) [Compound 8] | 650 nM | 15 | 10000 nM
COC(COc1cccc2ccccc12)CN(C)N.O=C(O)/C=C\C(=O)O (stereo not drawn) [Compound 5] | 520 nM | 8 | 4000 nM
Cc1ccccc1OCC(O)CN(C)N.O=C(O)/C=C/C(=O)O (stereo not drawn) [Compound 2] | 520 nM | 17 | 8700 nM
COc1ccc(OCC(O)CNNc2ccccc2)cc1.Cl (stereo not drawn) [Compound 6] | 90 nM | 37 | 3300 nM

Source: patent US7499847B2, “Crystalline VAP-1 and uses thereof” (Biotie Therapies Corporation, priority 2003, dated 2009)
